Source: the NIST ThermoML archive (doi:10.1021/je900124n)
Where “and” joins values, the source holds several entries; their conditions need not be identical. Identical values can stand only once. ± gives the expanded uncertainty stated by the source.

Details: Fluid (supercritical or subcritical phases), Buoyancy - hydrostatic balance with magnetic suspension - two sinkers

CCC [propane]
Details | mass density
460 K, 1046.1 kPa | 12.5822 ± 0.0038 kg/m3
460 K, 1046.4 kPa | 12.585 ± 0.0038 kg/m3
460 K, 1046.5 kPa | 12.5879 ± 0.0038 kg/m3
460 K, 1830.3 kPa | 22.7747 ± 0.02 kg/m3
460 K, 1830.7 kPa | 22.7788 ± 0.02 kg/m3 and 22.7791 ± 0.02 kg/m3
460 K, 1830.9 kPa | 22.7814 ± 0.02 kg/m3
460 K, 2892.4 kPa | 37.7704 ± 0.022 kg/m3 and 37.7706 ± 0.022 kg/m3
460 K, 2892.5 kPa | 37.7721 ± 0.022 kg/m3 and 37.7722 ± 0.022 kg/m3
460 K, 2892.6 kPa | 37.7743 ± 0.022 kg/m3
460 K, 4123 kPa | 57.2169 ± 0.025 kg/m3
460 K, 4123.1 kPa | 57.2175 ± 0.025 kg/m3
460 K, 4123.4 kPa | 57.2232 ± 0.025 kg/m3
460 K, 4123.6 kPa | 57.2271 ± 0.025 kg/m3
460 K, 4123.8 kPa | 57.2284 ± 0.025 kg/m3
460 K, 4978.5 kPa | 72.26 ± 0.012 kg/m3
460 K, 4978.6 kPa | 72.2622 ± 0.012 kg/m3
460 K, 6345.6 kPa | 99.2922 ± 0.016 kg/m3 [middle of 4 runs]
460 K, 8445 kPa | 147.718 ± 0.022 kg/m3 and 147.719 ± 0.022 kg/m3 and 147.717 ± 0.022 kg/m3
460 K, 8445.1 kPa | 147.721 ± 0.022 kg/m3
460 K, 8731.7 kPa | 154.767 ± 0.037 kg/m3
460 K, 8731.9 kPa | 154.768 ± 0.037 kg/m3
460 K, 8732 kPa | 154.77 ± 0.037 kg/m3 and 154.768 ± 0.037 kg/m3
460 K, 11420 kPa | 218.352 ± 0.048 kg/m3 [middle of 8 runs]
460.01 K, 687.74 kPa | 8.1493 ± 0.0033 kg/m3
460.01 K, 687.75 kPa | 8.1496 ± 0.0033 kg/m3 and 8.1495 ± 0.0033 kg/m3
460.01 K, 1046.4 kPa | 12.5877 ± 0.0038 kg/m3
460.01 K, 1046.6 kPa | 12.591 ± 0.0038 kg/m3
460.01 K, 4978.7 kPa | 72.2625 ± 0.012 kg/m3
460.01 K, 4978.8 kPa | 72.2648 ± 0.012 kg/m3
460.01 K, 4978.9 kPa | 72.2665 ± 0.012 kg/m3 [middle of 4 runs]
460.01 K, 8434.9 kPa | 147.459 ± 0.036 kg/m3
460.01 K, 8435 kPa | 147.46 ± 0.036 kg/m3
460.01 K, 8435.1 kPa | 147.462 ± 0.036 kg/m3 and 147.464 ± 0.036 kg/m3 and 147.461 ± 0.036 kg/m3
460.01 K, 8435.2 kPa | 147.464 ± 0.036 kg/m3 and 147.463 ± 0.036 kg/m3 and 147.466 ± 0.036 kg/m3
480 K, 716.12 kPa | 8.1077 ± 0.0033 kg/m3
480 K, 716.13 kPa | 8.1078 ± 0.0033 kg/m3 and 8.1079 ± 0.0033 kg/m3 and 8.108 ± 0.0033 kg/m3
480 K, 1038.1 kPa | 11.8882 ± 0.0037 kg/m3
480 K, 1924.9 kPa | 22.769 ± 0.018 kg/m3 and 22.7696 ± 0.018 kg/m3
480 K, 1925 kPa | 22.771 ± 0.018 kg/m3
480 K, 1925.1 kPa | 22.7716 ± 0.018 kg/m3 and 22.7708 ± 0.018 kg/m3
480 K, 3069 kPa | 37.9021 ± 0.021 kg/m3
480 K, 3069.2 kPa | 37.9044 ± 0.021 kg/m3 and 37.905 ± 0.021 kg/m3
480 K, 3069.5 kPa | 37.9086 ± 0.021 kg/m3
480 K, 3069.6 kPa | 37.9115 ± 0.021 kg/m3
480 K, 4376.6 kPa | 56.9392 ± 0.01 kg/m3
480 K, 4376.8 kPa | 56.9424 ± 0.01 kg/m3
480 K, 4377.1 kPa | 56.9487 ± 0.01 kg/m3
480 K, 4377.2 kPa | 56.9487 ± 0.01 kg/m3
480 K, 4377.6 kPa | 56.955 ± 0.01 kg/m3
480 K, 5340.5 kPa | 72.2831 ± 0.012 kg/m3 and 72.2827 ± 0.012 kg/m3
480 K, 5340.6 kPa | 72.285 ± 0.012 kg/m3
480 K, 6880.9 kPa | 99.2607 ± 0.016 kg/m3 and 99.2626 ± 0.016 kg/m3
480 K, 6881 kPa | 99.2628 ± 0.016 kg/m3
480 K, 9330.8 kPa | 147.276 ± 0.033 kg/m3 and 147.278 ± 0.033 kg/m3
480 K, 9330.9 kPa | 147.278 ± 0.033 kg/m3 and 147.275 ± 0.033 kg/m3
480 K, 9331 kPa | 147.279 ± 0.033 kg/m3
480 K, 9343.8 kPa | 147.548 ± 0.022 kg/m3
480 K, 9343.9 kPa | 147.549 ± 0.022 kg/m3 and 147.552 ± 0.022 kg/m3
480 K, 9344 kPa | 147.551 ± 0.022 kg/m3
480 K, 9344.1 kPa | 147.55 ± 0.022 kg/m3
480 K, 9689.8 kPa | 154.575 ± 0.034 kg/m3
480 K, 9690 kPa | 154.576 ± 0.034 kg/m3
480 K, 9690.1 kPa | 154.579 ± 0.034 kg/m3
480 K, 9690.2 kPa | 154.581 ± 0.034 kg/m3 and 154.58 ± 0.034 kg/m3
480 K, 13007 kPa | 218.012 ± 0.041 kg/m3 and 218.013 ± 0.041 kg/m3 and 218.014 ± 0.041 kg/m3
480.01 K, 399.65 kPa | 4.4746 ± 0.0029 kg/m3 and 4.4747 ± 0.0029 kg/m3 and 4.4744 ± 0.0029 kg/m3
480.01 K, 1038.8 kPa | 11.899 ± 0.0037 kg/m3
480.01 K, 1039.1 kPa | 11.9024 ± 0.0037 kg/m3
480.01 K, 1039.3 kPa | 11.9056 ± 0.0037 kg/m3
480.01 K, 1041.9 kPa | 11.9354 ± 0.0037 kg/m3
480.01 K, 5340.5 kPa | 72.2834 ± 0.012 kg/m3 and 72.2836 ± 0.012 kg/m3
480.01 K, 5340.6 kPa | 72.2841 ± 0.012 kg/m3 and 72.2848 ± 0.012 kg/m3 and 72.2843 ± 0.012 kg/m3
480.01 K, 6880.9 kPa | 99.2609 ± 0.016 kg/m3 and 99.2601 ± 0.016 kg/m3
480.01 K, 9330.9 kPa | 147.277 ± 0.033 kg/m3
480.01 K, 9331 kPa | 147.28 ± 0.033 kg/m3 and 147.281 ± 0.033 kg/m3
480.01 K, 13007 kPa | 218.014 ± 0.041 kg/m3
480.01 K, 13008 kPa | 218.016 ± 0.041 kg/m3
500 K, 415.04 kPa | 4.4539 ± 0.0029 kg/m3 and 4.454 ± 0.0029 kg/m3
500 K, 415.05 kPa | 4.454 ± 0.0029 kg/m3
500 K, 744.3 kPa | 8.0688 ± 0.0033 kg/m3
500 K, 744.34 kPa | 8.0689 ± 0.0033 kg/m3
500 K, 1058.4 kPa | 11.5875 ± 0.0037 kg/m3 and 11.5868 ± 0.0037 kg/m3
500 K, 2016.7 kPa | 22.7375 ± 0.018 kg/m3
500 K, 2016.8 kPa | 22.7381 ± 0.018 kg/m3
500 K, 2016.9 kPa | 22.7385 ± 0.018 kg/m3
500 K, 2017 kPa | 22.7394 ± 0.018 kg/m3
500 K, 3242.8 kPa | 37.9947 ± 0.019 kg/m3
500 K, 3243.6 kPa | 38.0051 ± 0.019 kg/m3
500 K, 3243.7 kPa | 38.0059 ± 0.019 kg/m3 and 38.0062 ± 0.019 kg/m3
500 K, 3243.9 kPa | 38.0086 ± 0.019 kg/m3
500 K, 4643.7 kPa | 56.9284 ± 0.01 kg/m3
500 K, 4644 kPa | 56.9317 ± 0.01 kg/m3
500 K, 4644.4 kPa | 56.9376 ± 0.01 kg/m3
500 K, 4644.5 kPa | 56.9398 ± 0.01 kg/m3
500 K, 4644.6 kPa | 56.941 ± 0.01 kg/m3
500 K, 7408.7 kPa | 99.2014 ± 0.016 kg/m3 and 99.1992 ± 0.016 kg/m3
500 K, 7408.8 kPa | 99.1996 ± 0.016 kg/m3 and 99.1999 ± 0.016 kg/m3
500 K, 10218 kPa | 147.109 ± 0.031 kg/m3 and 147.114 ± 0.031 kg/m3
500 K, 10219 kPa | 147.115 ± 0.031 kg/m3
500 K, 10234 kPa | 147.392 ± 0.022 kg/m3 and 147.391 ± 0.022 kg/m3 and 147.393 ± 0.022 kg/m3
500 K, 10637 kPa | 154.378 ± 0.032 kg/m3 [middle of 5 runs]
500 K, 14582 kPa | 217.649 ± 0.038 kg/m3 and 217.645 ± 0.038 kg/m3 and 217.644 ± 0.038 kg/m3
500 K, 14583 kPa | 217.649 ± 0.038 kg/m3
500.01 K, 415.04 kPa | 4.4539 ± 0.0029 kg/m3
500.01 K, 744.34 kPa | 8.069 ± 0.0033 kg/m3
500.01 K, 744.35 kPa | 8.069 ± 0.0033 kg/m3
500.01 K, 1058.3 kPa | 11.5848 ± 0.0037 kg/m3
500.01 K, 1058.7 kPa | 11.5888 ± 0.0037 kg/m3
500.01 K, 1059.3 kPa | 11.5965 ± 0.0037 kg/m3
500.01 K, 5697.7 kPa | 72.2794 ± 0.012 kg/m3 and 72.2805 ± 0.012 kg/m3 and 72.2784 ± 0.012 kg/m3
500.01 K, 5697.8 kPa | 72.2813 ± 0.012 kg/m3 [middle of 4 runs]
500.01 K, 5697.9 kPa | 72.2822 ± 0.012 kg/m3
500.01 K, 10218 kPa | 147.112 ± 0.031 kg/m3 and 147.116 ± 0.031 kg/m3
500.01 K, 10219 kPa | 147.118 ± 0.031 kg/m3 and 147.116 ± 0.031 kg/m3
500.01 K, 14582 kPa | 217.641 ± 0.038 kg/m3 and 217.644 ± 0.038 kg/m3
500.01 K, 14583 kPa | 217.647 ± 0.038 kg/m3
